Entries after “also recorded” stand apart in the source; their conditions may differ.
Tests used:
[1] = system: cerebral microglia activation; test: Microglia activation after orthopedic surgery (F4/80 immunostaining, stereological analysis); format: in vivo; conditions: mice after orthopedic surgery, ANXA1sp 1 mg/kg 1 hr before surgery, 24 hr post-surgery, F4/80 positive cells, vs untreated animals
Procedure: Male C57BL/6 mice (12 weeks) were subjected to orthopedic surgery and treated with ANXA1sp (1 mg/kg) 1 hr before surgery. At 24 hr of post-surgery, brain levels of microglia activation was determined by immunostaining with a biomarker F4/80. Stereological analysis of F4/80 positive cells was shown in the bar graph. N=5 (Naïve), 10 (Surgery), and 4 (ANXA1sp). Data are presented as mean+SD. **P<0.01 vs. Naïve; #P<0.05 vs. Surgery. One-way ANOVA with Multiple Comparisons. (FIG. 13).

SIRT3 = test: Hippocampal mitochondrial SIRT3 expression after orthopedic surgery; format: in vivo; conditions: mice after orthopedic surgery, time-dependent
ANXA1 = test: Hippocampal/brain ANXA1 levels after orthopedic surgery; format: in vivo, mice
From the text: Surgery reduced levels of endogenous ANXA1 in the brain at 24 hr (FIG. 25A, FIG. 25B for quantification). […] N=3-4; **P<0.01, ***P<0.001. One-way ANOVA with Multiple Comparisons.

MPO = test: Plasma/systemic MPO levels after orthopedic surgery; format: in vivo, mice
From the text: (§1) Systemic cytokines, including IL-6, are found elevated in patients developing delirium and POCD and may serve as potential biomarkers. […] N=4-5 (adult), N=1-5 (aged); **P<0.01. Two-way ANOVA with Multiple Comparisons.

NLRP3 inflammasome = test: NLRP3 expression/inflammasome activation in hippocampus after orthopedic surgery (Western blot); format: in vivo, mice; conditions: for NLRP3 activation: ANXA1sp 1 mg/kg 30 min before surgery
Procedure: (§2) Representative Western Blot images in adult (12 weeks-old) and aged (20 months-old) C57BL/6 mice for NLRP3 (FIG. 18A), Caspase-1 (FIG. 18C), and IL1β (FIG. 18E) (three key components of the inflammasome complex) and quantification. […] Data are presented as mean±SD. […] One-way ANOVA with Multiple Comparisons.
Male C57BL/6 mice received ANXA1sp (1 mg/kg) 30 min before surgery. […] Data are presented as mean±SD. […] Two-way ANOVA with Multiple Comparisons.

Caspase-1 = Caspase-1 activation in hippocampus after orthopedic surgery (Western blot); format: in vivo, mice
Procedure: as §2
(§3) Male C57BL/6 mice received ANXA1sp (1 mg/kg) 30 min before surgery. Representative blots of Caspase-1 activation and IL1β secretion. […] Data are presented as mean±SD. N=4-5; *P<0.05, **P<0.01, ***P<0.001. Two-way ANOVA with Multiple Comparisons.

IL-1β = IL-1β secretion in hippocampus after orthopedic surgery (Western blot); format: in vivo, mice
Procedure: as §2, §3

memory function = test: "What-when-where" task of object recognition memory after orthopedic surgery; format: in vivo, mice
From the text: After orthopedic surgery mice have reduced preferences for the replacement of objects (what), and for the original location of the displaced object (where); but they show a […] preference the order of presentation (when). […] Data are presented as mean±SD. N=10. *P<0.05 and **P<0.01 vs. surgery+vehicle using MANOVA. (FIG. 17).

[2] = system: OXPHOS mitochondrial electron transport chain complexes; test: Hippocampal total OXPHOS (Western blot) after orthopedic surgery; format: in vivo; conditions: mice (13 weeks) after orthopedic surgery
Procedure: (§4) Male C57BL/6 mice (13 weeks) were subjected to orthopedic surgery. Naïve animals (no surgery at 0 hour) were used as baseline-control. At 3, 6, and 24 hours of post-surgery, the total OXPHOS in hippocampus was determined by Western blot (FIG. 23A) and (FIG. 23B). Time-dependent increased hippocampal ATP production were determined by ELISA (FIG. 23C). […] Data are presented as mean±SD. N=4; **P<0.01, ***P<0.001. One-way ANOVA with Multiple Comparisons.

[3] = system: hippocampal ATP production; test: Hippocampal ATP production (ELISA) after orthopedic surgery; format: in vivo; conditions: mice (13 weeks) after orthopedic surgery
Procedure: as §4

citrate synthetase (CS) = test: Hippocampus citrate synthetase (CS, Western blot) after orthopedic surgery; format: in vivo; conditions: mice (13 weeks) after orthopedic surgery
Procedure: Male C57BL/6 mice (13 weeks) were subjected to orthopedic surgery while naïve animals were as baseline-control. At 3, 6, and 24 hours of post-surgery, the hippocampus CS was determined by Western blot (FIG. 24A) and (FIG. 24B). […] Data are presented as mean±SD. N=4; **P<0.01, ***P<0.001, ****P<0.0001. One-way ANOVA with Multiple Comparisons.

IL-6 = test: Systemic IL-6 after orthopedic surgery; format: in vivo; conditions: mice after orthopedic surgery
From the text: as §1

[4] = brain (hippocampus) of mice after orthopedic surgery

## Ac-Gln-Ala-Trp [ANXA1sp]
[1]
  cerebral microglia activation: significantly attenuated
SIRT3
  hippocampal mitochondrial SIRT3 expression/activation: significantly increases/activates; also recorded: significantly higher expression
ANXA1; 24 hr after surgery, 1 mg/kg ANXA1sp
  levels of ANXA-1 in the brain: significantly increase
ANXA1; mice after orthopedic surgery
  hippocampal ANXA1 levels: significantly increased
MPO; mice after orthopedic surgery, time-dependent
  plasma levels of meloperoxidase (MPO): reduced; also recorded: significantly decreased
MPO; mice, 24 hr after orthopedic surgery, listed as ANXA-1sp
  systemic levels of MPO: reduced
NLRP3 inflammasome; adult and aged mice, 24 hr after surgery
  NLRP3 activation: significantly reduced
NLRP3 inflammasome; aged mice, 6 hr after surgery
  NLRP3 activation: significantly reduced
NLRP3 inflammasome; [4]
  NLRP3 expression or NLRP3 inflammasome activation: inhibits; also recorded: significant inhibition; also recorded: reduces
Caspase-1; adult and aged mice after surgery, ANXA1sp 1 mg/kg 30 min before surgery
  levels of Caspase-1: significantly reduced
Caspase-1; [4]
  activation of caspase-1: significantly inhibited
IL-1β; adult mice after surgery, ANXA1sp 1 mg/kg 30 min before surgery
  secreted IL1β: no significance
IL-1β; [4]
  activation of IL-1β: significantly inhibited
Memory function; mice after orthopedic surgery, vs surgery+vehicle
  memory deficits (what-when-where object recognition preference scores): significantly improves
Memory function; surgery+ANXA1sp mice, vs original anchor object and two most recently seen objects
  exploration of the displaced/replaced object: greater exploration
[2]
  hippocampal total OXPHOS, particularly complex IV: significantly regulated
[3]
  hippocampal ATP production: attenuated
Citrate synthetase (CS)
  numbers of CS (citrate synthetase, biomarker of numbers of mitochondria): significantly increased
IL-6
  systemic IL-6: significantly reduced
IL-6; listed as ANXA-1sp
  systemic IL-6: reduced
